{"source": "patent US8431540B2", "about": "“Modified lysine-mimetic compounds” (Zealand Pharma A/S, priority 2005, dated 2013)", "key": {"Male CD-1 mice": {"tested_on": "Male CD-1 mice", "experiment": "Calcium-induced arrhythmia model (time to AV block after CaCl2 infusion)", "assay_type": "in vivo", "conditions": "compound IV 3 min before CaCl2 infusion (100 mg/kg/min), saline control 62-78", "experimental": "Peptides suitable for administration to cardiac cells can be identified in an in vivo model of calcium-induced arrhythmias according to the model of Lynch et al. (1981) J Cardiovasc. Pharmacol. 3: 49-60. Male CD-1 mice are anaesthetized with Ketamine (75 mg/kg) and medetomidine (1 mg/kg) IP. An i.v. cannula is inserted into the tail vein. A lead II ECG signal is recorded continuously by positioning stainless steel ECG electrodes on the right forelimb and […]. The ground electrode is placed on the right hind limb. The signal is amplified and filtered using Gould physiograph components and po-ne-mah data acquisition software. After a 90 sec equilibration period test compound is injected into the tail vein (over 30 seconds). Mice pre-treated with vehicle are tested as control animals. The injection volume is 100 μl/30 g mice in all experiments. Infusion of CaCl2 (30 mg/mL, 0.1 mL/min/30 g mice, 100 mg/kg/min) is started 3 min after IV administration of drug or vehicle (0.9% saline). The time lag to onset of cardiac conduction block is determined as the time from the start of CaCl2 infusion until the first arrhythmic event occurred. The first conduction block is defined as the first RR-interval, larger than or equal to 3 times one RR-interval from the pre-treatment period. The first arrhythmic event occurring is either a second degree AV-block (intermittent failure of the AV conduction characterized by a P-wave without the concomitant QRS complex) or a second degree SA block (prolonged RR-interval and a QRS-complex without a preceding P-wave). Responses are expressed relative to the time until 2nd degree AV-block occurred in vehicle treated mice.\nThe anti-arrhythmic effect of compounds according to the present teachings was tested in a model of calcium-induced arrhythmias according to the model of Lynch et al., J. Cardiovasc. Pharmacol. (1981), 3: 49-60. Male CD-1 mice were anaesthetized with Ketamine (75 mg/kg) and medetomidine (1 mg/kg) IP. An i.v. cannula was inserted into the tail vein. A lead II ECG signal was recorded continuously by positioning stainless steel ECG electrodes on the right forelimb and […]. The ground electrode was placed on the right hind limb. The signal was amplified and filtered using Gould physiograph components and po-ne-mah data acquisition software. After a 90 sec equilibration period test compound was injected into the tail vein (over 30 seconds). Mice pre-treated with vehicle (0.9% saline) were tested as control animals. The injection volume was 100 μl/30 g mice in all experiments. Infusion of CaCl2 (30 mg/mL, 0.1 mL/min/30 g mice, 100 mg/kg/min) was started 3 min after IV administration of drug or vehicle. The time lag to onset of cardiac conduction block was determined as the time from the start of CaCl2 infusion until the first arrhythmic event occurred. The first conduction block was defined as the first RR-interval, larger/or equal to, 3 times one RR-interval from the pre-treatment period. The first arrhythmic event occurring was either a second degree AV-block (intermittent failure of the AV conduction characterized by a P-wave without the concomitant QRS complex) or a second degree SA block (prolonged RR-interval and a QRS-complex without a preceding P-wave).\nMice pre-treated with vehicle (0.9% saline) were tested on all days as a measure for control level in untreated animal. Injection volume was 100 μL in all experiments. The time lag to onset of arrhythmias was determined as the time from the start of CaCl2 infusion until the first event of conduction block defined as intermittent failure of the SA or AV conduction characterized by delayed P-wave activation (SA block) or by a P-wave without the concomitant QRS complex (AV block). The time lag to onset of AV block is given below in Table 2."}, "Plasma stability assay": {"experiment": "Plasma stability assay", "conditions": "male rat plasma (1:1 plasma:pH 7.4 buffer), 1 μM, 37° C., 3 hours", "description": "To predict its plasma stability, compounds of the present teachings were incubated in male rat plasma (1:1 plasma:pH 7.4 buffer) at 1 μM concentration at 37° C. After 3 hours, the reaction was quenched with cold acetonitrile. The solution was centrifuged and the supernatant was analyzed with LC-MS using the following HPLC conditions: Thermo Hypersil-Keystone Aquasil C18 column (50 mm×2.1 mm, 5 μM) at ambient temperature; Solvent A: 0.1% formic acid in water; Solvent B: 0.1% formic acid in acetonitrile; solvent gradient: 100% A to 50% A over 2.5 min, to 10% A over 1.5 min, and returning to 100% A and re-equilibrating for 1.5 min; flowrate: 0.8 mL/min. The percent of the compound remaining was calculated by dividing the 3-hour incubation sample LC-MS signal area counts by the time=0 area counts."}, "[1]": {"experiment": "Metabolic stability assay (liver microsomes)", "conditions": "male, rat", "description": "To predict the stability of the compound under first pass (Phase I) metabolism, compounds of the present teachings were incubated with male rat liver microsomes at 1 μM concentration and 0.5 mg/mL protein concentration at 37° C. After 15 min, the reaction was quenched with cold acetonitrile. The solution was centrifuged and the supernatant was analyzed with LC-MS using the HPLC conditions described in section 3 above."}}, "data": [{"smiles": "O=C(N[C@@H]1C[C@@H](C(=O)O)N(C(=O)CO)C1)c1ccccc1", "note": "[Compound 52, (2S,4R) 4-Benzoylamino-1-(2-hydroxy-acetyl)-pyrrolidine-2-carboxylic acid]", "values": [{"measurement": "Time to AV block", "setting": "Male CD-1 mice", "value": 135.6, "unit": "s"}]}, {"smiles": "CC(C)NC(=O)[C@@H]1C[C@@H](NC(=O)c2ccccc2)CN1C(=O)CN", "note": "[Compound 67, (2S,4R) 1-(2-aminoacetyl)-4-benzamido-N-isopropylpyrrolidine-2-carboxamide]", "values": [{"measurement": "% Remaining", "setting": "Plasma stability assay", "value": 100, "unit": "%"}, {"measurement": "half-life at 1 μM", "setting": "[1]", "value": "> 30", "unit": "min"}, {"measurement": "Time to AV block", "setting": "Male CD-1 mice", "value": 134.4, "unit": "s"}]}, {"smiles": "CC(C)(C)OC(=O)NCC(=O)N1C[C@H](NC(=O)c2ccccc2)C[C@H]1C(=O)O", "note": "[Compound 83, (2S,4R) 4-benzamido-1-(2-(tert-butoxycarbonylamino)acetyl) pyrrolidine-2-carboxylic acid]", "values": [{"measurement": "% Remaining", "setting": "Plasma stability assay", "value": 100, "unit": "%"}, {"measurement": "half-life at 1 μM", "setting": "[1]", "value": "> 30", "unit": "min"}, {"measurement": "Time to AV block", "setting": "Male CD-1 mice", "value": 110.9, "unit": "s"}]}, {"smiles": "NCC(=O)N1C[C@H](NC(=O)c2ccccc2)C[C@H]1C(=O)NC1CCC1", "note": "[Compound 73, (2S,4R) 1-(2-aminoacetyl)-4-benzamido-N-cyclobutylpyrrolidine-2-carboxamide]", "values": [{"measurement": "% Remaining", "setting": "Plasma stability assay", "value": 95, "unit": "%"}, {"measurement": "half-life at 1 μM", "setting": "[1]", "value": "> 30", "unit": "min"}]}, {"smiles": "NCC(=O)N1C[C@H](NC(=O)c2ccccc2)C[C@H]1C(=O)NC1CCCC1", "note": "[Compound 71, (2S,4R) 1-(2-aminoacetyl)-4-benzamido-N-cyclopentylpyrrolidine-2-carboxamide]", "values": [{"measurement": "% Remaining", "setting": "Plasma stability assay", "value": 90, "unit": "%"}, {"measurement": "half-life at 1 μM", "setting": "[1]", "value": "> 30", "unit": "min"}]}, {"smiles": "CCNC(=O)[C@@H]1C[C@@H](NC(=O)c2ccccc2)CN1C(=O)CN", "note": "[Compound 66, (2S,4R) 1-(2-aminoacetyl)-4-benzamido-N-ethylpyrrolidine-2-carboxamide]", "values": [{"measurement": "% Remaining", "setting": "Plasma stability assay", "value": 100, "unit": "%"}, {"measurement": "half-life at 1 μM", "setting": "[1]", "value": "> 30", "unit": "min"}, {"measurement": "Time to AV block", "setting": "Male CD-1 mice", "value": 122.7, "unit": "s"}]}, {"smiles": "CC(C)CNC(=O)[C@@H]1C[C@@H](NC(=O)c2ccccc2)CN1C(=O)CN", "note": "[Compound 72, (2S,4R) 1-(2-aminoacetyl)-4-benzamido-N-isobutylpyrrolidine-2-carboxamide]", "values": [{"measurement": "% Remaining", "setting": "Plasma stability assay", "value": 88, "unit": "%"}, {"measurement": "half-life at 1 μM", "setting": "[1]", "value": "> 30", "unit": "min"}]}, {"smiles": "O=C(N[C@@H]1C[C@@H](C(=O)O)N(C(=O)CNC(=O)C(F)(F)F)C1)c1ccccc1", "note": "[Compound 82, (2S,4R) 4-benzamido-1-(2-(2,2,2-trifluoroacetamido)acetyl)pyrrolidine-2-carboxylic acid]", "values": [{"measurement": "% Remaining", "setting": "Plasma stability assay", "value": 34, "unit": "%"}, {"measurement": "half-life at 1 μM", "setting": "[1]", "value": "> 30", "unit": "min"}, {"measurement": "Time to AV block", "setting": "Male CD-1 mice", "value": 113.8, "unit": "s"}]}, {"smiles": "CC(C)(C)OC(=O)NCC(=O)N1C[C@H](NC(=O)c2ccccc2)C[C@H]1C(N)=O", "note": "[Compound 69, (2S,4R) 4-benzamido-1-(2-(tert-butoxycarbonylamino)acetyl) pyrrolidine-2-carboxamide]", "values": [{"measurement": "half-life in male rat liver microsomes", "value": "greater than 30 minutes"}]}, {"smiles": "O=CNCC(=O)N1C[C@H](NC(=O)c2ccccc2)C[C@H]1C(=O)O", "note": "[Compound 85, (2S,4R) 4-benzamido-1-(2-formamidoacetyl)pyrrolidine-2-carboxylic acid]", "values": [{"measurement": "% Remaining", "setting": "Plasma stability assay", "value": 107, "unit": "%"}]}, {"smiles": "NCC(=O)Nc1cc(NC(=O)c2ccccc2)cc(C(=O)O)c1", "note": "[Compound 26, 3-(2-Amino-acetylamino)-5-benzoylamino-benzoic acid]", "values": [{"measurement": "Time to AV block", "setting": "Male CD-1 mice", "value": 122.8, "unit": "s"}]}, {"smiles": "CNC(=O)[C@@H]1C[C@@H](NC(=O)c2ccccc2)CN1C(=O)CN", "note": "[Compound 65, (2S,4R) 1-(2-aminoacetyl)-4-benzamido-N-methylpyrrolidine-2-carboxamide]", "values": [{"measurement": "% Remaining", "setting": "Plasma stability assay", "value": 87, "unit": "%"}, {"measurement": "half-life at 1 μM", "setting": "[1]", "value": "> 30", "unit": "min"}, {"measurement": "Time to AV block", "setting": "Male CD-1 mice", "value": 115.2, "unit": "s"}]}, {"smiles": "NC(=O)C1N(C(=O)CO)CCN1C(=O)c1ccccc1", "note": "(stereo not drawn) [Compound 56, 1-Benzoyl-3-(2-hydroxy-acetyl)-imidazolidine-2-carboxylic acid amide]", "values": [{"measurement": "Time to AV block", "setting": "Male CD-1 mice", "value": 128.1, "unit": "s"}]}, {"smiles": "NC(CCC(=O)O)C(=O)N1C[C@H](NC(=O)c2ccccc2)C[C@H]1C(=O)O", "note": "(stereo partly drawn) [Compound 6, (2S,4R)1-(2-Amino-4-carboxy-butyryl)-4-benzoylamino-pyrrolidine-2-carboxylic acid]", "values": [{"measurement": "Time to AV block", "setting": "Male CD-1 mice", "value": 117.9, "unit": "s"}]}, {"smiles": "CCC(CC)NC(=O)[C@@H]1C[C@@H](NC(=O)c2ccccc2)CN1C(=O)CN", "note": "[Compound 70, (2S,4R) 1-(2-aminoacetyl)-4-benzamido-N-(pentan-3-yl)pyrrolidine-2-carboxamide]", "values": [{"measurement": "% Remaining", "setting": "Plasma stability assay", "value": 93, "unit": "%"}, {"measurement": "half-life at 1 μM", "setting": "[1]", "value": "> 30", "unit": "min"}]}, {"smiles": "O=C(CO)Nc1cc(NC(=O)c2ccccc2)cc(C(=O)O)c1", "note": "[Compound 54, 3-Benzoylamino-5-(2-hydroxy-acetylamino)-benzoic acid]", "values": [{"measurement": "Time to AV block", "setting": "Male CD-1 mice", "value": 121.7, "unit": "s"}]}, {"smiles": "CNCC(=O)N1C[C@H](NC(=O)c2ccccc2)C[C@H]1C(=O)O", "note": "[Compound 81, (2S,4R) 4-benzamido-1-(2-(methylamino)acetyl)-pyrrolidine-2-carboxylic acid]", "values": [{"measurement": "% Remaining", "setting": "Plasma stability assay", "value": 100, "unit": "%"}, {"measurement": "half-life at 1 μM", "setting": "[1]", "value": "> 30", "unit": "min"}, {"measurement": "Time to AV block", "setting": "Male CD-1 mice", "value": 123.2, "unit": "s"}]}, {"smiles": "NCC(=O)N1C[C@H](NC(=O)c2ccccc2)C[C@H]1C(=O)NC1CC1", "note": "[Compound 68, (2S,4R) 1-(2-aminoacetyl)-4-benzamido-N-cyclopropylpyrrolidine-2-carboxamide]", "values": [{"measurement": "% Remaining", "setting": "Plasma stability assay", "value": 96, "unit": "%"}, {"measurement": "half-life at 1 μM", "setting": "[1]", "value": "> 30", "unit": "min"}, {"measurement": "Time to AV block", "setting": "Male CD-1 mice", "value": 143.8, "unit": "s"}]}, {"smiles": "NCC(=O)N1C[C@H](NC(=O)c2ccccc2)C[C@H]1C(N)=O", "note": "[Compound 64, (2S,4R) 1-(2-aminoacetyl)-4-benzamidopyrrolidine-2-carboxamide]", "values": [{"measurement": "% Remaining", "setting": "Plasma stability assay", "value": 27, "unit": "%"}, {"measurement": "half-life at 1 μM", "setting": "[1]", "value": "> 30", "unit": "min"}, {"measurement": "Time to AV block", "setting": "Male CD-1 mice", "value": 111.7, "unit": "s"}]}, {"smiles": "CC(=O)NCC(=O)N1C[C@H](NC(=O)c2ccccc2)C[C@H]1C(=O)O", "note": "[Compound 80, (2S,4R) 1-(2-acetamidoacetyl)-4-benzamidopyrrolidine-2-carboxylic acid]", "values": [{"measurement": "% Remaining", "setting": "Plasma stability assay", "value": 100, "unit": "%"}, {"measurement": "half-life at 1 μM", "setting": "[1]", "value": "> 30", "unit": "min"}, {"measurement": "Time to AV block", "setting": "Male CD-1 mice", "value": 111.5, "unit": "s"}]}, {"smiles": "CN(C)CC(=O)N1C[C@H](NC(=O)c2ccccc2)C[C@H]1C(=O)O", "note": "[Compound 84, (2S,4R) 4-benzamido-1-(2-(dimethylamino)acetyl)pyrrolidine-2-carboxylic acid]", "values": [{"measurement": "% Remaining", "setting": "Plasma stability assay", "value": 100, "unit": "%"}, {"measurement": "half-life at 1 μM", "setting": "[1]", "value": "> 30", "unit": "min"}, {"measurement": "Time to AV block", "setting": "Male CD-1 mice", "value": 108.8, "unit": "s"}]}]}
